Assay [1] relates to volunteer patients in whom a contact allergy to nickel was suspected. Description: Topical effect on contact hypersensitivity reaction to nickel sulphate patch. It is filed as in vivo, humans. To be noted: cream containing 100 μM peptide under occlusive dressing on the back, 2 hours before 5% nickel sulphate patch; examined 24 hours later. As for the experimental part:
This study was carried out on 18 to 65 year-old volunteer patients in whom a contact allergy to nickel was suspected.
On day 0, there are applied with an occlusive dressing, to areas of the skin of the back, on the one hand a cream containing 100 μM of the peptide of formula II, and on the other hand the cream alone, without peptide, used as placebo.
Two hours later, patches impregnated with petroleum jelly containing nickel sulphate at a concentration of 5% are applied to the same areas of the skin, and also to an adjacent area that has not been pretreated.
24 hours later, the patients are examined. Those who developed a contact hypersensitivity reaction over the area treated with the placebo (and also over the adjacent area which received only the application of nickel salt), and who are therefore people who were already sensitized to nickel, are 14 in number.

In assay [2] the test system is female Balb/C mice. The assay can be described thus: Contact hypersensitivity to TNCB, peptide applied topically in a water-in-oil cream. The assay is classed as in vivo, mouse. To be noted: peptide in water-in-oil cream applied to the area to be sensitized 2 hours before sensitization; 24 hours after triggering; positive controls 7×10^−2 mm. As for the experimental part: The procedure is carried out as in a) above, but the peptide, incorporated in a cream of the water-in-oil type, is applied to the area to be sensitized 2 hours before the sensitization.
24 hours after the triggering reaction, the increase in the thickness of the ear is on average 3×10^−2 mm in the treated mice and 7×10^−2 mm in the positive controls.

In assay [3] the test system is female Balb/C mice. Description: Contact hypersensitivity to TNCB after a second sensitization (tolerance test). It is filed as in vivo, mouse. To be noted: same mice re-sensitized with TNCB 14 days after the first experiment, no new peptide; triggering 7 days later; measured 24 hours later; positive controls 14×10^−2 mm. As for the experimental part: 14 days after the end of the experiment described in a) above, the same mice are subjected to a new sensitization reaction on the shaved skin of the back, as described in a).
7 days later, the triggering test is carried out by application of TNCB to the ear, and 24 hours later, the degree of swelling of the ear is measured.
The aim of this second experiment is to distinguish between a possible a specific temporary immunosuppression and a specific immunological tolerance.

For assay [4], the system named is female Balb/C mice. The assay can be described thus: Contact hypersensitivity to TNCB after sensitization, peptide injected i.v. before sensitization. The assay is classed as in vivo, mouse. Particulars: 1.5 μg peptide i.v. (tail vein) 2 hours before TNCB sensitization; triggering 7 days later; measured 24 hours after triggering; positive controls 9.8×10^−2 mm, negative controls 1×10^−2 mm. As for the experimental part:
The study is carried out on 7-to 10-week-old female Balb/C mice.
A dose of 1.5 μg of the peptide studied (in solution in PBS buffer containing 0.1% of mouse serum) is injected into a vein of the tail of the mice 2 hours before the sensitization reaction.
The sensitization reaction consists in applying, with a brush, 100 μl of a solution containing 0.15% of TNCB in an acetone-olive oil (4:1) mixture to the shaved skin of the abdomen of the mice.
The triggering reaction is carried out 7 days after the sensitization reaction. This triggering reaction consists in applying to the two sides of an ear 10 microlitres of a solution containing 0.8% of TNCB in a vehicle consisting of the acetone-olive oil mixture already mentioned above.
To the other ear, only this mixture of acetone and olive oil is applied, for comparison.
The intensity of a possible contact hypersensitivity reaction is evaluated by estimating the size of the oedema of the ear treated with TNCB, in comparison with the ear treated with the vehicle alone. For that, the thickness of the ears is measured and compared with the aid of a micrometer screw. This measurement is carried out 24 hours after the triggering reaction.
The TNCB is also applied to the ear of control mice which have not been previously sensitized (negative controls).

With Ac-D-Lys-D-Pro-D-Val-NH2 [II], in assay [1], the “people (out of 14 already sensitized to nickel) who did not develop any contact hypersensitivity reaction over the area treated with the peptide” value came out at 7. For the same substance, the “increase in the thickness of the ear” value in the assay with female Balb/C mice [2] is on record as 3×10^−2 mm; with female Balb/C mice [4], “about 2.5×10^−2 mm”. Besides, the “degree of swelling of the ear (increase in the thickness of the ear)” value with female Balb/C mice [3] is given as ~3.5×10^−2 mm.
